In ChEMBL document CHEMBL1201862, “PubChem BioAssay data set” (2004) one finds AC50, EC50 and IC50 data, which are given here for two molecules.

The source made the active and inactive calls.

The target in one experiment is Cytochrome P450 2C19 (Homo sapiens, UniProt P33261). Briefly: Cytochrome panel assay with activity outcomes. Panel member name: p450-cyp2c19 Compounds with AC50 equal or less than 10 uM are considered active. In kind it is functional. Particulars: read-out: AC50.
Experiment [1] has as its target T1, Zinc finger protein mex-5 (Caenorhabditis elegans, UniProt Q9XUB2).
T1 sequence (Q9XUB2 whole entry): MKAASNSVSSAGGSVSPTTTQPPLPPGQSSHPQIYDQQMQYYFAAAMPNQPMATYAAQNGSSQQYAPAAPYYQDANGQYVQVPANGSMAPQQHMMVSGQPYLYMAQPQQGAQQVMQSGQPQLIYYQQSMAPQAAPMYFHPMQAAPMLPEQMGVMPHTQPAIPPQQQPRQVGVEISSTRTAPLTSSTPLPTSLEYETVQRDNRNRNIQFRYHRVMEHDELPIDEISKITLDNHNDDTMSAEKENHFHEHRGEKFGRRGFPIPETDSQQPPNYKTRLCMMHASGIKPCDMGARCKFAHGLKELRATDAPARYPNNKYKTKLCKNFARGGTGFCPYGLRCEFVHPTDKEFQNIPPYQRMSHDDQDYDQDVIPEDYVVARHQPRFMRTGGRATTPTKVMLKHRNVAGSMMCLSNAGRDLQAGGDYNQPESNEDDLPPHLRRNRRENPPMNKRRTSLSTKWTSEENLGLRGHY
Briefly: potency of MEX-5 RNA-binding blockers – biochemical, C. elegans, fluorescence polarization, dose response (AID 1960). A general note: Fluorescence polarisation rises when a labelled molecule tumbles more slowly, as on binding a larger partner.

The next experiment deals with T2, Cytochrome P450 1A2 (Homo sapiens, UniProt P05177).
T2 sequence (P05177 whole entry): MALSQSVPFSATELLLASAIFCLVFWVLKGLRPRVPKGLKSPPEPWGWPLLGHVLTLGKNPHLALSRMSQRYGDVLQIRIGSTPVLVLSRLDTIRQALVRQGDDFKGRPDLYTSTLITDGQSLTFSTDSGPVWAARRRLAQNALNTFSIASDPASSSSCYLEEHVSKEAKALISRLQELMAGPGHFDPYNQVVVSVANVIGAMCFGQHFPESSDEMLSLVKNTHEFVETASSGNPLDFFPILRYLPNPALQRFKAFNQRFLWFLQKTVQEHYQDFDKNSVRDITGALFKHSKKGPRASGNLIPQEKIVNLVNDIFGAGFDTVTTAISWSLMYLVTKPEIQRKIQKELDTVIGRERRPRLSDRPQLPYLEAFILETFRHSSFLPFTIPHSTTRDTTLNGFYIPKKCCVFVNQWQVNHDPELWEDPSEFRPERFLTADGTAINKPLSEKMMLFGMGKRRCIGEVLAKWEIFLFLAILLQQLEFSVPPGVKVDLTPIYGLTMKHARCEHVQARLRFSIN

Experiment [2] addresses T3, SUMO-activating enzyme (Homo sapiens, UniProt Q9UBT2). Put plainly: blockers of UBC9-mediated SUMO conjugation – biochemical, AlphaScreen, SUMOylation inhibitor project, confirmation (AID 2018). In kind it is functional. On the technique in general: Alpha assays give light when donor and acceptor beads are brought close together.
The target in another experiment is Cytochrome P450 2D6 (Homo sapiens, UniProt P10635).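 Note: CYP2D6 member of a cytochrome P450 panel assay.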
Experiment [3] deals with T4, RNA-binding protein pos-1 (Caenorhabditis elegans, UniProt G5EF15).
T4 sequence (G5EF15 whole entry): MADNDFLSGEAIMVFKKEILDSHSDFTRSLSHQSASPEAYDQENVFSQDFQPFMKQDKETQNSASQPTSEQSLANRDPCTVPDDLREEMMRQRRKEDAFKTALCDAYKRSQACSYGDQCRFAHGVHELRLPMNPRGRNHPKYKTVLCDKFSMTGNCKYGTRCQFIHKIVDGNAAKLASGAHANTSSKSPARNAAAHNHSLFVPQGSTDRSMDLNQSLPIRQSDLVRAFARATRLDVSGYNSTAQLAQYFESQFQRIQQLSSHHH
Put plainly: disruptors of C. elegans POS-1 RNA interaction – biochemical, fluorescence polarization, dose response (AID 1964).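 Note: purified POS-1 fused to maltose binding protein made in E. coli; potency of compounds blocking POS-1 binding to fluorescent RNA.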

The next experiment has as its target Large T antigen (Simian virus 40, UniProt P03070). Format: functional, Betapolyomavirus macacae.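 Note: Confirmatory-stage PubChem screen for compounds that inhibit SV40 T antigen.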
For experiment [4], the target named is T3, SUMO-activating enzyme. Put plainly: blockers of SAE1/SAE2–UBC9 SUMO transfer – biochemical, HTRF, uHTS, primary screen (AID 2006). Format: protein-complex assay. A general note: Time-resolved FRET reads energy transfer from a long-lived donor to a nearby acceptor.
For experiment [5], the target named is Signal transducer and activator of transcription 3 (Homo sapiens, UniProt P40763). Briefly: STAT3 activation with BCL3 mRNA and toxicity – cell-based, […], BCL3 qPCR, cytotoxicity, late-stage follow-up, panel member STAT3 Activation (AID 2049).
Signal transducer and activator of transcription 3, sequence (P40763 whole entry): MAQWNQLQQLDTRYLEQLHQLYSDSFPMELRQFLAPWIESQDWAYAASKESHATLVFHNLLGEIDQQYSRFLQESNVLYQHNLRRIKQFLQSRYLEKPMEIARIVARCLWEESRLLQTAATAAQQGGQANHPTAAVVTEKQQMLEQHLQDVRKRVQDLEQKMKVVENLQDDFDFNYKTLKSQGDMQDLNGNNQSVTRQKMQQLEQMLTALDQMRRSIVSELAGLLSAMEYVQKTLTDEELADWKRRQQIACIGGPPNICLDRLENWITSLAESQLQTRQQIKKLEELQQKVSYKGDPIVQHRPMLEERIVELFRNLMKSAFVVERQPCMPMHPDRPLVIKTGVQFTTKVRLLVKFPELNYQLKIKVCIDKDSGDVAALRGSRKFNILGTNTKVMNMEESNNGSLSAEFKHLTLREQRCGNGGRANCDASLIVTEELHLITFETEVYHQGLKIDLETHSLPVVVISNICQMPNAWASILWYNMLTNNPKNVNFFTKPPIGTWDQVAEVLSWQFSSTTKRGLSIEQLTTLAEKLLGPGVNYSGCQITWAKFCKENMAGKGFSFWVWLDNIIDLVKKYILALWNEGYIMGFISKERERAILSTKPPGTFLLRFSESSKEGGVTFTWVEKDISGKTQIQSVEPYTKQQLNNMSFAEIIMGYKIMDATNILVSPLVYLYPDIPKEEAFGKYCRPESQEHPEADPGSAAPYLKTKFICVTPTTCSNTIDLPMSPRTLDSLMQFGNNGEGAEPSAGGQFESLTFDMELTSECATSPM

T3 sequence (Q9UBE0 whole entry): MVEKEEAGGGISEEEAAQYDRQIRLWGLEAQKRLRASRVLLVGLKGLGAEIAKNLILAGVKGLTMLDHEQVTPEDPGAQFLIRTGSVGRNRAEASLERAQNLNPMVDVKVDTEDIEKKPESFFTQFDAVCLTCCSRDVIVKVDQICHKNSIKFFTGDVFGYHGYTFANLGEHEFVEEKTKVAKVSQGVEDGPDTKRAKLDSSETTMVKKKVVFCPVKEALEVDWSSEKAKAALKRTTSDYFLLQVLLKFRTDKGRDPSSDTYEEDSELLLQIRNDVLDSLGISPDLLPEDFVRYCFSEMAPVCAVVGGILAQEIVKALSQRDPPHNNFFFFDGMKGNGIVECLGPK
T3 sequence (Q9UBT2 whole entry): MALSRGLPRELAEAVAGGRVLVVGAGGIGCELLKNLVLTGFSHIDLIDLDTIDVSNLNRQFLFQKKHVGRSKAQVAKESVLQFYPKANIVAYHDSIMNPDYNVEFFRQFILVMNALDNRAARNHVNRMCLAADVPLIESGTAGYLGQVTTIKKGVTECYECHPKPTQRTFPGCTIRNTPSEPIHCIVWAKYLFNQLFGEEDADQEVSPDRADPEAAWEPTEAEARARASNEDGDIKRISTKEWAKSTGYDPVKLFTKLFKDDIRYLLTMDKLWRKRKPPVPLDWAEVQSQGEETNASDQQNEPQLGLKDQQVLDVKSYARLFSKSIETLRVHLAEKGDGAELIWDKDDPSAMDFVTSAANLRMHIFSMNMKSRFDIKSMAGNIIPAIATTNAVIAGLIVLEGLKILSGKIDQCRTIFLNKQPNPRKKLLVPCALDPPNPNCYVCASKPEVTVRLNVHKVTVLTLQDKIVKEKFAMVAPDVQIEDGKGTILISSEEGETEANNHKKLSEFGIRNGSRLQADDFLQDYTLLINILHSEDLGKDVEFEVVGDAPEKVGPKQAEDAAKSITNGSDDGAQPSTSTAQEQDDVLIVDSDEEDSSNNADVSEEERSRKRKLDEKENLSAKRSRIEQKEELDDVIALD
Cytochrome P450 2D6, sequence (P10635 whole entry): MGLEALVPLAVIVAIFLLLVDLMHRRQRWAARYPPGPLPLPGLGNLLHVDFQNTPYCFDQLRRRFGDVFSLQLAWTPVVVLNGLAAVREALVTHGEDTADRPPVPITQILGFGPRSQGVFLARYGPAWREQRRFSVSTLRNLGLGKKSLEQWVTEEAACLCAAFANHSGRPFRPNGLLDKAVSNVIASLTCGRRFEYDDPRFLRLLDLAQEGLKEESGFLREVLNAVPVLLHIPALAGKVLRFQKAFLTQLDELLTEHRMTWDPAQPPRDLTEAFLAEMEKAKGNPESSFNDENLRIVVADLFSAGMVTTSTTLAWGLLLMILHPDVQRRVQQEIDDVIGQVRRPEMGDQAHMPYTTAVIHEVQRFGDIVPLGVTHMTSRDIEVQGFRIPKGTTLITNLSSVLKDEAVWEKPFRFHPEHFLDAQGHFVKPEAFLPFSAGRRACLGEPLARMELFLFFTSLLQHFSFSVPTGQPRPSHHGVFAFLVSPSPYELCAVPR
Large T antigen, sequence (P03070 whole entry): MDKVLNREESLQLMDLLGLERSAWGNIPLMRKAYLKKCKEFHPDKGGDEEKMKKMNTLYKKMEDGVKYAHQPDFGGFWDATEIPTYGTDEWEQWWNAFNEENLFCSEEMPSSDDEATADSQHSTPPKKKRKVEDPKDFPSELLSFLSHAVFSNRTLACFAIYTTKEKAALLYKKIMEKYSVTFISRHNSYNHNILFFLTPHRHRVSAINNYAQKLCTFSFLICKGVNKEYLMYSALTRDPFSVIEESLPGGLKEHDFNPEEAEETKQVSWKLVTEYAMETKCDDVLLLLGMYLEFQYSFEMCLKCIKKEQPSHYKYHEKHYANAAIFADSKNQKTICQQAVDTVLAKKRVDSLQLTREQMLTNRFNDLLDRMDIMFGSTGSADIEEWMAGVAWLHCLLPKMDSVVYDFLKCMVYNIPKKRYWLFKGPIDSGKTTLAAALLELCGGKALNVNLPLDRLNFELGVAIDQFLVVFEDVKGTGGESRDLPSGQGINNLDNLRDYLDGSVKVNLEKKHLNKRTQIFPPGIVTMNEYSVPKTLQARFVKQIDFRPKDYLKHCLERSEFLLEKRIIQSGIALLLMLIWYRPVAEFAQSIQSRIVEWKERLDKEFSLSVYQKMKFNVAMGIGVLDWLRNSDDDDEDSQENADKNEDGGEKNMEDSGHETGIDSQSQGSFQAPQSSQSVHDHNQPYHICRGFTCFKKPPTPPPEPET
Cytochrome P450 2C19, sequence (P33261 whole entry): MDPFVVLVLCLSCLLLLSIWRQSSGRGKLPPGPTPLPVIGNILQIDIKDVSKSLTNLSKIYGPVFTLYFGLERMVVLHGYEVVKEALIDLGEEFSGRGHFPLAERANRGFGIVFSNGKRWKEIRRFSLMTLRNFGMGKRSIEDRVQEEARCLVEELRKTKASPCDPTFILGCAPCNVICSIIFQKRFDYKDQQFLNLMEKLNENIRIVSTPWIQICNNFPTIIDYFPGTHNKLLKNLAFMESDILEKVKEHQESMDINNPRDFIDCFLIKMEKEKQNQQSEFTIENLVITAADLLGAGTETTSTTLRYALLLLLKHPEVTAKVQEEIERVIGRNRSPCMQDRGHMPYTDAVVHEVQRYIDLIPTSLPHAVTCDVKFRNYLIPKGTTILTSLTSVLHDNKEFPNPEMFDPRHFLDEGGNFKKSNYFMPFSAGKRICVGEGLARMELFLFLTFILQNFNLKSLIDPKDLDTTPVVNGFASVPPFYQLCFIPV

As for `N=C1/C(=C\c2ccc(SCc3ccco3)o2)C(=O)N=C2SC=NN12`, the AC50 – broadly, the midpoint of the concentration-response curve, whichever way the signal moves – at Cytochrome P450 2C19 was 15.8 µM (inconclusive); at Cytochrome P450 1A2, 1.58 µM (inconclusive); at Cytochrome P450 2D6 it was 15.8 µM (inconclusive). Also, the EC50 in experiment [1] and in experiment [3] was > 300 µM (not active) throughout. The IC50 (usually the concentration needed to halve the response being measured) is 2.28 µM (active) on SUMO-activating enzyme [2], 59.6 µM (active) at Large T antigen and 32.7 µM (active) on SUMO-activating enzyme [4].
Turning to `COc1cc(NC(=O)c2cc(C(C)C)on2)c(OC)cc1Cl`, the EC50 (commonly the concentration giving half of the maximal effect) in experiment [5] was 0.00104 µM (active).
